Test results published in US7880010B2, “Crystalline forms of a dimethylphenyl compound” (Theravance, Inc., priority 2006, dated 2011).

Columns and labels:
Format in all cases: cell-based
[1] = target: T1, hM1 receptor (Homo sapiens, UniProt P11229); assay: Blockade of agonist-mediated calcium release via FLIPR (Assay C); conditions: CHO cells stably expressing hM1
T1 construct: expressed in transfected cells; host or cells: CHO
T1 sequence (P11229 1-460): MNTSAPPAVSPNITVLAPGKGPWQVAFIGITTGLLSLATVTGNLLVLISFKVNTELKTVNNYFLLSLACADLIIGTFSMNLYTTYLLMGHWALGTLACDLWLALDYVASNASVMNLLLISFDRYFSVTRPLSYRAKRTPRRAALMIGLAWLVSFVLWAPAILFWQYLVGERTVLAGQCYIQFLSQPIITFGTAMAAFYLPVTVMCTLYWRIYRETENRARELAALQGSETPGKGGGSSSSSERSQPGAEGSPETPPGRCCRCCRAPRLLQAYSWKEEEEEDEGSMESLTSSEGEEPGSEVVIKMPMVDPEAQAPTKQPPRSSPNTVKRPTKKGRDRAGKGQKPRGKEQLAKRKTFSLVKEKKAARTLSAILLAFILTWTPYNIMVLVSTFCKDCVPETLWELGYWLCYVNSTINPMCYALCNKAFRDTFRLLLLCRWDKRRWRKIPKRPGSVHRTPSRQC
Experimental: In this functional assay, the functional potency of a test compound as an antagonist of hM1, hM3 and […] receptors was determined by measuring the ability of the test compound to inhibit agonist-mediated increases in intracellular calcium.
CHO cells stably expressing the receptors were seeded into 96-well FLIPR plates the night before the assay was done. Seeded cells were washed twice with FLIPR buffer (10 mM HEPES, pH 7.4, 2 mM calcium chloride, 2.5 mM probenecid in Hank's Buffered Salt Solution (HBSS) without calcium and magnesium) using Cellwash (MTX Labsystems, Inc.) to remove growth media. After washing, each well contained 50 μL of FLIPR buffer. The cells were then incubated with 50 μL/well of 4 μM FLUO-4AM (a 2× solution was made) for 40 minutes at 37° C., 5% carbon dioxide. Following the dye incubation period, cells were washed two times with FLIPR buffer, leaving a final volume of 50 μL in each well.
The dose-dependent stimulation of intracellular Ca^2+ release for oxotremorine was determined so that the test compound could be measured against oxotremorine stimulation at an EC90 concentration. Cells were first incubated with compound dilution buffer for 20 minutes and then oxotremorine was added. […]
The parameters used for the FLIPR were: exposure length of 0.4 seconds, laser strength of 0.5 watts, excitation wavelength of 488 nm, and emission wavelength of 550 nm. Baseline was determined by measuring the change in fluorescence for 10 seconds prior to addition of oxotremorine. Following oxotremorine stimulation, the FLIPR continuously measured the change of fluorescence every 0.5 to 1 second for 1.5 minutes to capture the maximum fluorescence change.
The change of fluorescence was expressed as maximum fluorescence minus baseline fluorescence for each well. The raw data was analyzed against the logarithm of test compound concentration by nonlinear regression with GraphPad Prism (GraphPad Software, Inc., San Diego, Calif.) using the built-in model for sigmoidal dose-response. […]

[2] = target: T2, human β2 adrenergic receptor (Homo sapiens, UniProt P07550); assay: Whole-cell cAMP Flashplate assay, heterologously expressed receptor; conditions: HEK-293 cells
T2 construct: expressed in transfected cells; host or cells: HEK-293
Experimental: (§1) cAMP assays were performed in a radioimmunoassay format using the Flashplate Adenylyl Cyclase Activation Assay System with [^125I]-cAMP (NEN SMP004, PerkinElmer Life Sciences Inc., Boston, Mass.), according to the manufacturers instructions. For the determination of β1 and β2 […], […] HEK-293 cell lines stably expressing cloned human, β1 and β2 receptors were grown to near confluency in DMEM supplemented with 10% FBS and Geneticin (500 μg/mL). For the determination β3 receptor agonist potency (EC50), CHO-K1 cell line stably expressing cloned human or β3 adrenergic receptors was grown to near confluency in Hams F-12 media supplemented with 10% FBS and Geneticin (250 μg/mL). Cells were rinsed with PBS and detached in dPBS (Dulbecco's Phosphate Buffered Saline, without CaCl2 and MgCl2) containing 2 mM EDTA or Trypsin-EDTA solution (0.05% trypsin/0.53 mM EDTA). After counting cells in Coulter cell counter, cells were pelleted by centrifugation at 1,000 rpm and re-suspended in stimulation buffer containing IBMX (PerkinElmer Kit) pre-warmed to room temperature to a concentration of 1.6×10^6 to 2.8×10^6 cells/mL. About 40,000 to 80,000 cells per well were used in this assay. Test compounds (10 mM in DMSO) were diluted into PBS containing 0.1% BSA in Beckman Biomek-2000 and tested at 11 different concentrations ranging from 100 μM to 1 pM. Reactions were incubated for 10 min at 37° C. and stopped by adding 100 μL of cold detection buffer containing [^125I]-cAMP (NEN SMP004, PerkinElmer Life Sciences, Boston, Mass.). The amount of cAMP produced (pmol/well) was calculated based on the counts observed for the samples and cAMP standards as described in the manufacturer's user manual. Data were analyzed by nonlinear regression analysis with the GraphPad Prism Software package (GraphPad Software, Inc., San Diego, Calif.) with the sigmoidal equation. The Cheng-Prusoff equation (Cheng Y, and Prusoff W H., Biochemical Pharmacology, 1973, 22, 23, 3099-108) was used to calculate the […] values.

[3] = target: T3, human β1 adrenergic receptor (Homo sapiens, UniProt P08588); assay: as above; conditions: HEK-293 cells
T3 construct: expressed in transfected cells; host or cells: HEK-293
Experimental: as §1

[4] = target: T4, human β3 adrenergic receptor (Homo sapiens, UniProt P13945); assay: as above; conditions: CHO-K1 cells
T4 construct: expressed in transfected cells; host or cells: CHO / CHO-K1
Experimental: as §1

T4 sequence (P13945 whole entry): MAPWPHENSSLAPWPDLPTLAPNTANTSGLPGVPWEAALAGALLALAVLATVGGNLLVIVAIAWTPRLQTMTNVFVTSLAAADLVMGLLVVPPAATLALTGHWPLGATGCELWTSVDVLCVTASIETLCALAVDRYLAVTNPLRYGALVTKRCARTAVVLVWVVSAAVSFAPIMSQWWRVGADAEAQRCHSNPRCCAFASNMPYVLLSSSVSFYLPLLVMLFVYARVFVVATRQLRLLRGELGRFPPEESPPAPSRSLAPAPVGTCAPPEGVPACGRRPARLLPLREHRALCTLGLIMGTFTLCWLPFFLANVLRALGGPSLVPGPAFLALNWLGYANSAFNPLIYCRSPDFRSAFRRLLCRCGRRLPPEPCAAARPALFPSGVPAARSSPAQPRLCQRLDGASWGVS
T2 sequence (P07550 whole entry): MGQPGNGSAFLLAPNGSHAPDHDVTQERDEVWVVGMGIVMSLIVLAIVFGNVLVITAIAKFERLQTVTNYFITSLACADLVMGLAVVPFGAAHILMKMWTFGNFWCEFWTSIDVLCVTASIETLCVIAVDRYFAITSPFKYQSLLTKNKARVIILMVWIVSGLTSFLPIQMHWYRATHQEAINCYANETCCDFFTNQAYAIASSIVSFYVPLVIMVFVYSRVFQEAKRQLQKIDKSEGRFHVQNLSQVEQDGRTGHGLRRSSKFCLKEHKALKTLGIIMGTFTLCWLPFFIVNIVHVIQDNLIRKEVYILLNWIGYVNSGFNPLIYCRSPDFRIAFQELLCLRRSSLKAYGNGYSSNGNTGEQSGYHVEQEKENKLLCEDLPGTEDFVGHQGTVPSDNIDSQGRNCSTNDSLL
T3 sequence (P08588 whole entry): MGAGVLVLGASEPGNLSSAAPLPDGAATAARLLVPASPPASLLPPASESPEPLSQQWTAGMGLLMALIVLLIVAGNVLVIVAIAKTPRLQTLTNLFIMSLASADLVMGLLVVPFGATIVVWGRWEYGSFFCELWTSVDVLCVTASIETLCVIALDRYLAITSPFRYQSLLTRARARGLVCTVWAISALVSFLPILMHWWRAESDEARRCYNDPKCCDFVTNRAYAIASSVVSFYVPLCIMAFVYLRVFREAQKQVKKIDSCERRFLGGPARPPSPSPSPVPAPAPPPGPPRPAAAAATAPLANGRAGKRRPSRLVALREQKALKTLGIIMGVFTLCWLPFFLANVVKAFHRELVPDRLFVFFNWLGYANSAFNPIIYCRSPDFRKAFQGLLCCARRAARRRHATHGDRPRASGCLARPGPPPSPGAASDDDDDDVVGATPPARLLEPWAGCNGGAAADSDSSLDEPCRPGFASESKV

Kobs for blockade of agonist-mediated calcium release [1]: less than 10 nM
EC50 [2]: < 10 nM
EC50 [3]: ~30 nM
EC50 [4]: > 700 nM
SMILES: Cc1cc(NC(=O)CCN2CCC(OC(=O)Nc3ccccc3-c3ccccc3)CC2)c(C)cc1CNC[C@H](O)c1ccc(O)c(NC=O)c1 [compound of formula I, biphenyl-2-ylcarbamic acid 1-[2-(4-{[(R)-2-(3-formylamino-4-hydroxyphenyl)-2-hydroxyethylamino]methyl}-2,5-dimethylphenylcarbamoyl)ethyl]-piperidin-4-yl ester]
